# Experimental data taken from patent EP0917465B1, “ANTIMALARIAL AND ANTI-BABESIOSIS AGENTS AND PHARMACEUTICAL COMPOSITIONS CONTAINING THE SAME AGENTS” (priority 1996, dated 1998).
# Like-named read-outs stand apart in the source and are kept apart here.
# Columns and labels:
# [1] = system: Plasmodium vinckei, petteri, ou chabaudi; test: Therapeutic index in infected mice: 4-day Peters test activity versus semi-chronic toxicity (DL 50); assay type: in vivo, souris Swiss mâles; conditions: ratio of activity to toxicity under identical conditions, intraperitoneal or subcutaneous, twice a day for 4 days
# Text: (§1) Afin d'évaluer l'index thérapeutique des divers produits, on a mesuré l'activité de ceux-ci dans un test in vivo et comparé à la toxicité aiguë chez l'animal . Cette activité est mesurée suivant le test décrit par PETERS W. ( Chemotherapy and Drug résistance in Malaria, 1970). Un composé est administré pendant quatre jours consécutifs à des souris préalablement impaludées par Plasmodium vinckei, petteri, ou chabaudi, ledit composé étant dissous dans une solution de NaCI à 0.9 %. Les préparations sont ainsi administrées par voie intrapéritonéale ou par voie sous-cutanée à des souris Swiss mâles infectées par voie IV, avec Plasmodium petterei ou Plasmodium chabaudi (10^6 cellules infectées ). Le composé est administré deux fois par jour pendant 4 jours consécutifs, la première injection étant pratiquée 2 heures après l'infestation et la deuxième, 10 heures après. La parasitémie est déterminée par un frottis, le jour suivant la fin du traitement. La toxicité est mesurée in vivo selon la même méthode, les animaux ayant reçu dans les conditions d'administration ci-dessus, 2 injections par jour pendant 4 jours ( toxicité semi chronique). Les résultats sont exprimés sous forme de DL 50, soit la dose ayant entraîné la mort de 50% des animaux.
# (§2) Les résultats des essais sont résumés dans le tableau I ci-après sous forme d'index thérapeutique, soit le rapport de l'activité à la toxicité mésurées dans des conditions identiques comme décrit ci-dessus.
# Plasmodium falciparum = test: In vitro antimalarial activity, (3H) hypoxanthine incorporation in infected human erythrocytes (Desjardins test); assay type: cell-based; conditions: Plasmodium falciparum, Erythrocyte, read-out: IC50 exprimée en micromoles
# Text: L'activité antipaludéenne des dérivés selon les exemples précédents est testée sur l'humain infesté par Plasmodium falciparum. Le produit à tester est mis en contact avec les érythrocytes humains infectés pendant 24 heures. Un précurseur radioactif d'acides nucléiques l'Hypoxanthine (^3H) est ensuite ajouté. Le précurseur ne s'incorpore que dans les cellules infectées par un parasite en croissance, c'est à dire dans les cellules que la drogue n'aura pas affectées.
# L'aptitude ou non à incorporer le précurseur reflète donc la viabilité des cellules impaludées. La durée des tests est de 60 à 70 heures ( test de DESJARDINS R.E. , CANFIELD C.J., HATNES J.D. et CHULAY J.D., Antimicrob. Agents Chemother. 1979, 16, p 710-718 ). Les résultats sont consignés dans le tableau I ci-après, sous forme de IC50 (ou DE50), soit la concentration de produit dans le milieu expérimental capable d'inhiber in vitro la croissance du parasite d'une valeur de 50%.
# [2] = system: Babesia Bovis, Babesia Canis; test: In vitro anti-Babesia activity, (3H) hypoxanthine incorporation; assay type: cell-based; conditions: read-out: Activité/ Babesia à 10 millimole
# Text: Le procédé de criblage d'activité anti-malaria, basé sur l'incorporation de l'(^3H) Hypoxanthine par le parasite, est utilisé pour tester l'activité anti-métabolique de tels composés sur Babesia Bovis, Babesia Canis. Une relation étroite est trouvée entre le taux d'incorporation de (^3H) Hypoxanthine dans une mesure standard et le pourcentage de cellules parasitées, déterminé par examen microscopique. Cette activité métabolique est quantifiée et évaluée dans le tableau ci-dessous par la cotation +++ pour les molécules affichant dans le test une inhibition de 50 % de l'incorporation de (^3H) Hypoxanthine (ID 50), ces molécules étant à une concentration inférieure ou égale à 0,01 Micromolaire. La cotation est de ++ pour la même activité à une concentration de 0,01 à 0.1 micromolaire et enfin de + pour une concentration inférieure ou égale à 1 Micromolaire.
# [3] = Therapeutic index in infected mice: 4-day Peters test activity versus semi-chronic toxicity (DL 50); assay type: in vivo, souris Swiss mâles; conditions: mouse, in vivo, ratio of activity to toxicity under identical conditions, intraperitoneal or subcutaneous, twice a day for 4 days, read-out: Index thérapeutique
# Text: as §1, §2
# [4] = concentration inhibiting in vitro parasite growth by 50 %, human erythrocytes infected with Plasmodium falciparum, 24 h contact, test lasts 60 to 70 h
# [5] = class of ID 50 for (3H) hypoxanthine incorporation
SMILES,Index thérapeutique [1],IC50 (Plasmodium falciparum) [nM],IC50 [2] [nM],selectivity ratio [3],IC50 (Plasmodium falciparum; [4]) [nM],"IC50 [2, 5] [nM]"
"C[N+]1(CCCCCCCCCCCCCC[N+]2(C)CCCC2)CCCC1 [EXEMPLE 16, 1,1'-(1,14-tetradecanediyl) bis (1-methylpyrrolidinium) dibromure]",8,0.9,< 10,,,
"C=CC[N+](C)(C)CCCCCCCCCCCCCC[N+](C)(C)CC=C [EXEMPLE 25, N,N'-di (2-propenyl)-N,N,N',N'-tetramethyl-1,14 tetradecane diaminium dibromure]",15,5,< 10,,,
"CC[N+](C)(CC)CCCCCCCCCCCCCCCCCC[N+](C)(CC)CC [EXEMPLE 14, N,N'-dimethyl-N,N,N',N'-tetraethyl-1,18 octadecanediaminium, dibromure]",14,0.04,< 10,,,
"C#CCC[N+](C)(C)CCCCCCCCCCCCCC[N+](C)(C)CCC#C [EXEMPLE 26, N,N'-di (3-butynyl)-N, N, N', N'-tetramethyl 1,14-tetradecanediaminium dibromure]",45,40,10 to 100,,,
"C[N+]1(CCCCCCCCCCCCCCCC[N+]2(C)CCCC(CO)C2)CCCC(CO)C1 (stereo not shown) [EXEMPLE 20, 1,1'-(1,16-hexadecanediyl) bis (1-methyl-3hydroxy methyl piperidinium) dibromure]",,,,17,0.3,< 10
"CCC[N+](C)(CC)CCCCCCCCCCCCCC[N+](C)(CC)CCC (stereo not shown) [EXEMPLE1, N, N'-dimethyl-N, N'-diethyl-N, N'-dipropyl-1, 14 tetradecanediaminium, dibromure]",,,,,10,10 to 100
"CCC[N+](C)(CC)CCCCCCCCCCCCCCCC[N+](C)(CC)CCC (stereo not shown) [EXEMPLE 3, N.N'-dimethyl-N.N'-diethyl-N, N'-dipropyl-1,16-exadecanediaminium, dibromure]",,,,,3,10 to 100
"CCC[N+](CCC)(CCC)CCCCCCCCCCCCCCCCCCCC[N+](CCC)(CCC)CCC [EXEMPLE 10, N, N, N, N', N', N' hexapropyl-1,20-eicosanediaminium, dibromure]",,,,,700,100 to 1000
"CCC[N+](CCC)(CCC)CCCCCCCCCCCCCC[N+](CCC)(CCC)CCC [EXEMPLE 8, N, N, N, N', N', N' hexapropyl-1, 14-tetradecanediaminium, dibromure]",,,,,100,100 to 1000
"CCC[N+](C)(CC)CCCCCCCCCCCCCCC[N+](C)(CC)CCC (stereo not shown) [EXEMPLE 2, N,N'-dimethyl-N, N'-diethyl-N, N'-dipropyl-1, 15-pentadecanediaminium, dibromure]",,,,,10,100 to 1000
"CCC[N+](CCC)(CCCCCCCCCCCCCC[N+](CCC)(CCC)CCOCC)CCOCC [EXEMPLE 28, N, N'-di-(2-ethoxyethyl)-N, N, N', N'-tetrapropyl-1, 14 tetradecanediaminium dibromure]",,,,,10,< 10
"C[N+]1(CCCCCCCCCCCCCCCCCCCCCC[N+]2(C)CCCC2CO)CCCC1CO (stereo not shown) [EXEMPLE 19, 1,1'-(1,22-docosanediyl) bis (2-hydroxymethyl1-methylpyrrolidinium) dibromure]",,,,,70,100 to 1000
"CC[N+](C)(CC)CCCCCCCCCCCCCCCCCCCCC[N+](C)(CC)CC [EXEMPLE 15, N,N'-dimethyl-N,N,N',N'-tetraethyl-1,21-heneicosanediaminium, dibromure]",,,,,0.003,< 10
"C[N+]1(CCCCCCCCCCCCCCCC[N+]2(C)CCCC2CO)CCCC1CO (stereo not shown) [EXEMPLE 18, 1,1'-(1, 16-hexadecanediyl) bis (2-hydroxymethyl-1-methylpyrrolidinium) dibromure]",,,,22,1,< 10
